Measurements from patent publication US20180193490A1, “Beta Amyloid Staging” (GE HEALTHCARE LIMITED, priority 2015, published 2018).

Biological target: T1, beta amyloid (Aβ) plaques in the brain (Homo sapiens, UniProt P05067)
T1 construct: from tissue; host or cells: brain of living subjects (cortex and striatum), in vivo PET
Experiment: Provisional SUVR analysis of GE067-026 PET images (Cortex ID, cortex and striatal VOIs)
Type: in vivo
Conditions: for Cases C+S+ by SUVR analysis of cortical and striatal beta amyloid uptake / Cases C+S− by SUVR analysis of cortical and striatal beta amyloid uptake / Cases C−S+ by SUVR analysis of cortical and striatal beta amyloid uptake / Cases C−S− by SUVR analysis of cortical and striatal beta amyloid uptake: SUVRpons thresholds
Experimental: Some work has been performed to assess the quantitative SUVR measures from the GE067-026 cohort.
In an automated SUVR assessment methodology using GE software Cortex ID (J Lilja) PET images were quantitated using separate cortex and striatal VOIs. The SUVRs were determined for the cortical and striatal values using 3 different reference regions; whole cerebellum, cerebellar grey and pons.
Thresholding was determined by multiple methods to identify which method provided the greatest accuracy (See Setting SUVR thresholds)
The thresholds determined by ROC analysis for Phase 3 or above being abnormal gave the best sensitivity and specificity for cortical assessments. A similar approach gave the best sensitivity and specificity for the striatal assessments. Using the whole cerebellum as a reference region or pons as the reference region gave the best sensitivity and specificity (see Table 4).
Combining these thresholds to determine cortical and striatal positivity based upon SUVRpons values gave similar results to those see by BIE assessment. Of 5 C+S− cases 3 […] were Thal phase 3.
SUVR thresholds were set using two methods. • (1) Statistical determination • (2) Receiver operator characteristics
For statically determined thresholds the algorithm depicted in FIG. 1 was applied. Briefly, all cases were identified as negative or positive based on histopathology. For the cortex this was based on the GE067-026 standard of truth^2—abnormal or normal based on any regional Bielschowsky score>1.5=abnormal and all regional scores≤1.5=normal. For the striatum this was based on the identification of “Frequent” plaques by amyloid-β IHC (4G8). The threshold determinations are calculated in the file Cortex ID SUVR thresholds.xlsx. ^2 For the GE067-007 and -026 autopsy trials the primary endpoint was Bielschowsky silver stain (BSS) scores of CERAD based neuritic plaque density. 0=none, 1=sparse, 2=moderate and 3=frequent. Multiple measures were averaged and the arithmetic mean between none/sparse (normal) and moderate/frequent (abnormal=1.5. Any case with a regional BSS score>1.5 was deemed abnormal.
The SUVR means and standard deviations were calculated for normal and abnormal subjects for each of the SUVR measures; Cortex and striatum and for each of the SUVR reference regions. The threshold was determined to be the SUVR value at which the fractional standard deviation is equal between the two population means i.e. when the normal mean plus y times the normal SD is equal to the abnormal mean minus y times the abnormal SD.
A statistically based threshold was determined for abnormal and normal cases (based on histopathology) and applied to cortical and striatal SUVRs separately.
A variant of the above threshold was determined based upon the Thal phases. Thus the threshold for the cortex and striatum was determined between phase 0 and 1, between phase 1 and phase 2 . . . etc. This gave 15 threshold values (5 to discriminate each phase and 1 for each of the 3 reference regions; 15 in total)
This is an empirically determined threshold that by definition identifies the threshold that gives the best sensitivity and specificity.
Receiver operator characteristics analysis determines the sensitivity and specificity given a variable threshold. The most appropriate threshold is then determined by the maximum of the sum of the sensitivity and specificity.

T1 sequence (P05067 672-713 limits assumed): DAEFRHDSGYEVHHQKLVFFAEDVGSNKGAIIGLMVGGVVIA

CNc1ccc(-c2nc3ccc(O)cc3s2)cc1F [Flutemetamol]
Cases C+S+ by SUVR analysis of cortical and striatal beta amyloid uptake (Amyloid Thal phase 0): 0
Cases C+S− by SUVR analysis of cortical and striatal beta amyloid uptake (Amyloid Thal phase 0): 0
Cases C−S+ by SUVR analysis of cortical and striatal beta amyloid uptake (Amyloid Thal phase 0): 0
Cases C−S− by SUVR analysis of cortical and striatal beta amyloid uptake (Amyloid Thal phase 0): 7
Cases C+S+ by SUVR analysis of cortical and striatal beta amyloid uptake (Amyloid Thal phase 1): 0
Cases C+S− by SUVR analysis of cortical and striatal beta amyloid uptake (Amyloid Thal phase 1): 0
Cases C−S+ by SUVR analysis of cortical and striatal beta amyloid uptake (Amyloid Thal phase 1): 0
Cases C−S− by SUVR analysis of cortical and striatal beta amyloid uptake (Amyloid Thal phase 1): 8
Cases C+S+ by SUVR analysis of cortical and striatal beta amyloid uptake (Amyloid Thal phase 2): 0
Cases C+S− by SUVR analysis of cortical and striatal beta amyloid uptake (Amyloid Thal phase 2): 0
Cases C−S+ by SUVR analysis of cortical and striatal beta amyloid uptake (Amyloid Thal phase 2): 0
Cases C−S− by SUVR analysis of cortical and striatal beta amyloid uptake (Amyloid Thal phase 2): 5
Cases C+S+ by SUVR analysis of cortical and striatal beta amyloid uptake (Amyloid Thal phase 3): 1
Cases C+S− by SUVR analysis of cortical and striatal beta amyloid uptake (Amyloid Thal phase 3): 3
Cases C−S+ by SUVR analysis of cortical and striatal beta amyloid uptake (Amyloid Thal phase 3): 0
Cases C−S− by SUVR analysis of cortical and striatal beta amyloid uptake (Amyloid Thal phase 3): 8
Cases C+S+ by SUVR analysis of cortical and striatal beta amyloid uptake (Amyloid Thal phase 4): 16
Cases C+S− by SUVR analysis of cortical and striatal beta amyloid uptake (Amyloid Thal phase 4): 1
Cases C−S+ by SUVR analysis of cortical and striatal beta amyloid uptake (Amyloid Thal phase 4): 2
Cases C−S− by SUVR analysis of cortical and striatal beta amyloid uptake (Amyloid Thal phase 4): 3
Cases C+S+ by SUVR analysis of cortical and striatal beta amyloid uptake (Amyloid Thal phase 5): 44
Cases C+S− by SUVR analysis of cortical and striatal beta amyloid uptake (Amyloid Thal phase 5): 1
Cases C−S+ by SUVR analysis of cortical and striatal beta amyloid uptake (Amyloid Thal phase 5): 0
Cases C−S− by SUVR analysis of cortical and striatal beta amyloid uptake (Amyloid Thal phase 5): 1
Sum of sensitivity and specificity (Average over all thresholds, reference region Cer): 163%
Sum of sensitivity and specificity (Average over all thresholds, reference region Pons): 168%
Sum of sensitivity and specificity (Average over all thresholds, reference region Wcer): 168%
Phase 3 cases identified as C+S− between the two methods (BIE and SUVR) (BIE and SUVR combined): 6
Sum of sensitivity and specificity (CTX BSS ROC abnormality threshold, Average of reference regions): 177%
Sum of sensitivity and specificity (CTX BSS ROC abnormality threshold, reference region Cer): 176%
Sum of sensitivity and specificity (CTX BSS ROC abnormality threshold, reference region Pons): 174%
Sum of sensitivity and specificity (CTX BSS ROC abnormality threshold, reference region Wcer): 180%
Sum of sensitivity and specificity (CTX Max Mirra ROC abnormality threshold, Average of reference regions): 170%
Sum of sensitivity and specificity (CTX Max Mirra ROC abnormality threshold, reference region Cer): 170%
Sum of sensitivity and specificity (CTX Max Mirra ROC abnormality threshold, reference region Pons): 167%
Sum of sensitivity and specificity (CTX Max Mirra ROC abnormality threshold, reference region Wcer): 173%
Sum of sensitivity and specificity (CTX Mirra mode ROC abnormality threshold, Average of reference regions): 172%
Sum of sensitivity and specificity (CTX Mirra mode ROC abnormality threshold, reference region Cer): 170%
Sum of sensitivity and specificity (CTX Mirra mode ROC abnormality threshold, reference region Pons): 173%
Sum of sensitivity and specificity (CTX Mirra mode ROC abnormality threshold, reference region Wcer): 174%
Sum of sensitivity and specificity (CTX Phase1 threshold, Average of reference regions): 139%
Sum of sensitivity and specificity (CTX Phase1 threshold, reference region Cer): 142%
Sum of sensitivity and specificity (CTX Phase1 threshold, reference region Pons): 129%
Sum of sensitivity and specificity (CTX Phase1 threshold, reference region Wcer): 145%
Sum of sensitivity and specificity (CTX Phase2 threshold, Average of reference regions): 155%
Sum of sensitivity and specificity (CTX Phase2 threshold, reference region Cer): 153%
Sum of sensitivity and specificity (CTX Phase2 threshold, reference region Pons): 158%
Sum of sensitivity and specificity (CTX Phase2 threshold, reference region Wcer): 152%
Sum of sensitivity and specificity (CTX Phase 3 + ROC abnormality threshold, Average of reference regions): 183%
Sum of sensitivity and specificity (CTX Phase 3 + ROC abnormality threshold, reference region Cer): 180%
Sum of sensitivity and specificity (CTX Phase 3 + ROC abnormality threshold, reference region Pons): 186%
Sum of sensitivity and specificity (CTX Phase 3 + ROC abnormality threshold, reference region Wcer): 182%
Sum of sensitivity and specificity (CTX Phase3 threshold, Average of reference regions): 161%
Sum of sensitivity and specificity (CTX Phase3 threshold, reference region Cer): 153%
Sum of sensitivity and specificity (CTX Phase3 threshold, reference region Pons): 166%
Sum of sensitivity and specificity (CTX Phase3 threshold, reference region Wcer): 166%
Sum of sensitivity and specificity (CTX Phase 4 + ROC abnormality threshold, Average of reference regions): 179%
Sum of sensitivity and specificity (CTX Phase 4 + ROC abnormality threshold, reference region Cer): 176%
Sum of sensitivity and specificity (CTX Phase 4 + ROC abnormality threshold, reference region Pons): 182%
Sum of sensitivity and specificity (CTX Phase 4 + ROC abnormality threshold, reference region Wcer): 180%
Sum of sensitivity and specificity (CTX Phase4 threshold, Average of reference regions): 177%
Sum of sensitivity and specificity (CTX Phase4 threshold, reference region Cer): 173%
Sum of sensitivity and specificity (CTX Phase4 threshold, reference region Pons): 179%
Sum of sensitivity and specificity (CTX Phase4 threshold, reference region Wcer): 179%
Sum of sensitivity and specificity (CTX Phase5 threshold, Average of reference regions): 136%
Sum of sensitivity and specificity (CTX Phase5 threshold, reference region Cer): 132%
Sum of sensitivity and specificity (CTX Phase5 threshold, reference region Pons): 142%
Sum of sensitivity and specificity (CTX Phase5 threshold, reference region Wcer): 133%
Sum of sensitivity and specificity (CTX abnormality statistical threshold, Average of reference regions): 176%
Sum of sensitivity and specificity (CTX abnormality statistical threshold, reference region Cer): 174%
Sum of sensitivity and specificity (CTX abnormality statistical threshold, reference region Pons): 175%
Sum of sensitivity and specificity (CTX abnormality statistical threshold, reference region Wcer): 180%
Sum of sensitivity and specificity (STR Phase1 threshold, Average of reference regions): 144%
Sum of sensitivity and specificity (STR Phase1 threshold, reference region Cer): 135%
Sum of sensitivity and specificity (STR Phase1 threshold, reference region Pons): 147%
Sum of sensitivity and specificity (STR Phase1 threshold, reference region Wcer): 150%
Sum of sensitivity and specificity (STR Phase2 threshold, Average of reference regions): 138%
Sum of sensitivity and specificity (STR Phase2 threshold, reference region Cer): 135%
Sum of sensitivity and specificity (STR Phase2 threshold, reference region Pons): 135%
Sum of sensitivity and specificity (STR Phase2 threshold, reference region Wcer): 144%
Sum of sensitivity and specificity (STR Phase3 threshold, Average of reference regions): 173%
Sum of sensitivity and specificity (STR Phase3 threshold, reference region Cer): 164%
Sum of sensitivity and specificity (STR Phase3 threshold, reference region Pons): 178%
Sum of sensitivity and specificity (STR Phase3 threshold, reference region Wcer): 179%
Sum of sensitivity and specificity (STR Phase4 threshold, Average of reference regions): 183%
Sum of sensitivity and specificity (STR Phase4 threshold, reference region Cer): 180%
Sum of sensitivity and specificity (STR Phase4 threshold, reference region Pons): 186%
Sum of sensitivity and specificity (STR Phase4 threshold, reference region Wcer): 183%
Sum of sensitivity and specificity (STR Phase5 threshold, Average of reference regions): 158%
Sum of sensitivity and specificity (STR Phase5 threshold, reference region Cer): 151%
Sum of sensitivity and specificity (STR Phase5 threshold, reference region Pons): 165%
Sum of sensitivity and specificity (STR Phase5 threshold, reference region Wcer): 157%
Sum of sensitivity and specificity (STR ROC abnormality threshold, Average of reference regions): 187%
Sum of sensitivity and specificity (STR ROC abnormality threshold, reference region Cer): 185%
Sum of sensitivity and specificity (STR ROC abnormality threshold, reference region Pons): 188%
Sum of sensitivity and specificity (STR ROC abnormality threshold, reference region Wcer): 187%
Sum of sensitivity and specificity (STR abnormality statistical threshold, Average of reference regions): 184%
Sum of sensitivity and specificity (STR abnormality statistical threshold, reference region Cer): 182%
Sum of sensitivity and specificity (STR abnormality statistical threshold, reference region Pons): 187%
Sum of sensitivity and specificity (STR abnormality statistical threshold, reference region Wcer): 185%
Share of C+S− cases that were Thal phase 3 (SUVRpons values): 66%
C+S− cases by SUVR thresholds (SUVRpons values, all Thal phases): 5
Thal phase 3 C+S− cases by SUVR analysis in common with those identified by BIE assessment (of the 3 Thal phase 3 C+S− cases by SUVR): two
